Test results published in patent publication US7109354B2, “Thiophene amidines, compositions thereof, and methods of treating complement-mediated diseases and conditions” (3-Dimensional Pharmaceuticals, Inc., priority 2002, dated 2006).
pKi: −log10 of the molar value. Counter-ions that a name gives are not always drawn.

Target: T1, Activated human C1s (Homo sapiens, UniProt P09871)
T1 construct: purchased Calbiochem (La Jolla, Calif.)
T1 sequence (P09871 438-688 limits assumed): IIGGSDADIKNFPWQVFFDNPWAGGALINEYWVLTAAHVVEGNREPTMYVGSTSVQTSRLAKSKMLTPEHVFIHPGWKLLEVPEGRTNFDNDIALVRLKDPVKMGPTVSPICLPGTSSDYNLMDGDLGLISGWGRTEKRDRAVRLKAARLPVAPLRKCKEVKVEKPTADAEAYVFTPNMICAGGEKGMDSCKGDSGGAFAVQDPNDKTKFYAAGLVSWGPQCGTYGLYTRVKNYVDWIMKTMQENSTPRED
T1 sequence (P09871 16-437 partner limits assumed): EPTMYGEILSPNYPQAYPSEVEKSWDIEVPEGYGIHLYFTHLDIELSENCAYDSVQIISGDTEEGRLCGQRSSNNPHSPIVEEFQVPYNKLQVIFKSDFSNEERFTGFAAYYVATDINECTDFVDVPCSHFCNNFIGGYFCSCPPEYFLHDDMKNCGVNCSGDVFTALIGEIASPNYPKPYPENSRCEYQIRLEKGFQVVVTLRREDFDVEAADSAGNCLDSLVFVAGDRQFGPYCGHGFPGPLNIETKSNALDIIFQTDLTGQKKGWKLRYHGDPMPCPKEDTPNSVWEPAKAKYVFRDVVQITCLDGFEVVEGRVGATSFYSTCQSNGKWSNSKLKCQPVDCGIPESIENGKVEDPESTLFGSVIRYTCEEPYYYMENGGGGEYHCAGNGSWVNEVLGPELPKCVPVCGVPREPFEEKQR
Test: In vitro inhibition of C1s (Ki determination, C1s-catalyzed hydrolysis of Z-Gly-Arg-S-Bzl, DTNB readout)
Format: biochemical
Conditions: substrate Z-Gly-Arg-S-Bzl 45 μM, DTNB 200 μM, C1s 2.3 nM, pH 7.5, 37° C., absorbance at 405 nm

SMILES | pKi
CSc1sc(C(=N)N)cc1S(=O)(=O)c1cccc(-c2ccco2)c1 [Example 76, 4-(3-Furan-2-yl-benzenesulfonyl)-5-methylsulfanyl-thiophene-2-carboxamidine] | 7.64 to 8.22
CSc1sc(C(=N)N)cc1S(=O)(=O)c1cccc(-c2ccc(C(C)=O)cc2)c1 [Example 85, 4-(4′-acetyl-biphenyl-3-sulfonyl)-5-methylsulfanyl-thiophene-2-carboxamidine] | 7.64 to 8.22
CSc1sc(C(=N)N)cc1S(=O)(=O)c1cccc(-c2ccc(N(C)C)cc2)c1 [Example 86, 4-(4′-dimethylamino-biphenyl-3-sulfonyl)-5-methylsulfanyl-thiophene-2-carboxamidine] | 7.64 to 8.22
CCOc1ccc(-c2cccc(S(=O)(=O)c3cc(C(=N)N)sc3SC)c2)cc1 [Example 88, 4-(4′-ethoxy-biphenyl-3-sulfonyl)-5-methylsulfanyl-thiophene-2-carboxamidine] | 7.64 to 8.22
CSc1sc(C(=N)N)cc1S(=O)(=O)c1cccc(-c2c(C)noc2C)c1 [Example 89, 4-[3-(3,5-dimethyl-isoxazol-4-yl)-benzenesulfonyl]-5-methylsulfanyl-thiophene-2-carboxamidine] | 7.64 to 8.22
CSc1sc(C(=N)N)cc1S(=O)(=O)c1cccc(-c2ccc(Cl)s2)c1 [Example 92, 4-[3-(5-Chloro-thiophen-2-yl)-benzenesulfonyl]-5-methylsulfanyl-thiophene-2-carboxamidine] | 7.64 to 8.22
CSc1sc(C(=N)N)cc1S(=O)(=O)c1cccc(-c2c(C)cccc2C)c1 [Example 96, 4-(2′,6′-dimethyl-biphenyl-3-sulfonyl)-5-methylsulfanyl-thiophene-2-carboxamidine] | 7.64 to 8.22
CSc1sc(C(=N)N)cc1S(=O)(=O)c1cccc(-c2cccc(C)c2C)c1 [Example 99, 4-(2′,3′-dimethyl-biphenyl-3-sulfonyl)-5-methylsulfanyl-thiophene-2-carboxamidine] | 7.64 to 8.22
CSc1sc(C(=N)N)cc1S(=O)(=O)c1cccc(-c2cccc(Cl)c2Cl)c1 [Example 100, 4-(2′,3′-dichloro-biphenyl-3-sulfonyl)-5-methylsulfanyl-thiophene-2-carboxamidine] | 7.64 to 8.22
CCOC(=O)c1cccc(-c2cccc(S(=O)(=O)c3cc(C(=N)N)sc3SC)c2)c1 [Example 102, 3′-(5-carbamimidoyl-2-methylsulfanyl-thiophene-3-sulfonyl)-biphenyl-3-carboxylic acid ethyl ester] | 7.64 to 8.22
CSc1sc(C(=N)N)cc1S(=O)(=O)c1cccc(-c2cccc(C(=O)N(C)C)c2)c1 [Example 103, 3′-(5-carbamimidoyl-2-methylsulfanyl-thiophene-3-sulfonyl)-biphenyl-3-carboxylic acid dimethylamide] | 7.64 to 8.22
CSc1sc(C(=N)N)cc1S(=O)(=O)c1cccc(-c2ccc3[nH]cnc3c2)c1 [Example 106, 4-[3-(1H-benzoimidazol-5-yl)-benzenesulfonyl]-5-methylsulfanyl-thiophene-2-carboxamidine] | 7.64 to 8.22
CSc1sc(C(=N)N)cc1S(=O)(=O)c1cc(-c2ccccc2C)c2ncn(C)c2c1 [Example 108, 5-methylsulfanyl-4-(3-methyl-7-o-tolyl-3H-benzoimidazole-5-sulfonyl)-thiophene-2-carboxamidine trifluoroacetate] | 7.64 to 8.22
CSc1sc(C(=N)N)cc1S(=O)(=O)c1cc(-c2ccccc2C)c2nc[nH]c2c1 [Example 110, 5-methylsulfanyl-4-(7-o-tolyl-3H-benzoimidazole-5-sulfonyl)-thiophene-2-carboxamidine trifluoroacetate] | 7.64 to 8.22
COc1cccc(S(=O)(=O)c2cc(C(=N)N)sc2SC)c1 [Example 114, 4-(3-Methoxy-benzenesulfonyl)-5-methylsulfanyl-thiophene-2-carboxamidine hydrochloride HCl] | 7.64 to 8.22
CSc1sc(C(=N)N)cc1S(=O)(=O)c1cccc(Oc2ccccc2)c1 [Example 116, 5-Metylsulfanyl-4-(3-phenoxy-benzenesulfonyl)-thiophene-2-carboxamidine hydrochloride salt] | 7.64 to 8.22
CSc1sc(C(=N)N)cc1S(=O)(=O)c1cnc(Cl)c(Br)c1 [Example 118, 4-(5-Bromo-6-chloro-pyridine-3-sulfonyl)-5-methylsulfanyl-thiophene-2-carboxamidine] | 7.64 to 8.22
CSc1sc(C(=N)N)cc1S(=O)(=O)c1cnc(N)c(Br)c1 [Example 119, 4-(6-Amino-5-bromo-pyridine-3-sulfonyl)-5-methylsulfanyl-thiophene-2-carboxamidine] | 7.64 to 8.22

Further lines, results first:

pKi | SMILES
7.64 to 8.22 | CSc1sc(C(=N)N)cc1S(=O)(=O)c1cccc(-c2cccc([N+](=O)[O-])c2)c1 [Example 78, 5-Methylsulfanyl-4-(3′-nitro-biphenyl-3-sulfonyl)-thiophene-2-carboxamidine]
7.64 to 8.22 | CSc1sc(C(=N)N)cc1S(=O)(=O)c1cccc(-c2ccc(O)cc2)c1 [Example 79, 4-(4′-Hydroxy-biphenyl-3-sulfonyl)-5-methylsulfanyl-thiophene-2-carboxamidine]
7.64 to 8.22 | CSc1sc(C(=N)N)cc1S(=O)(=O)c1cccc(-c2ccc(C=O)cc2)c1 [Example 80, 4-(4′-Formyl-biphenyl-3-sulfonyl)-5-methylsulfanyl-thiophene-2-carboxamidine]
7.64 to 8.22 | CSc1sc(C(=N)N)cc1S(=O)(=O)c1cccc(-c2ccc(F)cc2)c1 [Example 81, 4-(4′-Fluoro-biphenyl-3-sulfonyl)-5-methylsulfanyl-thiophene-2-carboxamidine]
7.64 to 8.22 | CSc1sc(C(=N)N)cc1S(=O)(=O)c1cccc(-c2ccc(-c3ccccc3)c(F)c2)c1 [Example 82, 4-(2′-Fluoro-[1,1′;4′,1″]terphenyl-3″-sulfonyl)-5-methylsulfanyl-thiophene-2-carboxamidine]
7.64 to 8.22 | CSc1sc(C(=N)N)cc1S(=O)(=O)c1cccc(-c2ccc(CO)cc2)c1 [Example 83, 4-(4′-hydroxymethyl-biphenyl-3-sulfonyl)-5-methylsulfanyl-thiophene-2-carboxamidine]
7.64 to 8.22 | CSc1sc(C(=N)N)cc1S(=O)(=O)c1cccc(-c2ccc(C#N)cc2)c1 [Example 84, 4-(4′-cyano-biphenyl-3-sulfonyl)-5-methylsulfanyl-thiophene-2-carboxamidine]
7.64 to 8.22 | C=Cc1ccccc1-c1cccc(S(=O)(=O)c2cc(C(=N)N)sc2SC)c1 [Example 87, 5-methylsulfanyl-4-(2′-vinyl-biphenyl-3-sulfonyl)-thiophene-2-carboxamidine]
7.64 to 8.22 | CSc1sc(C(=N)N)cc1S(=O)(=O)c1cccc(-c2ccccc2C)c1 [Example 90, 4-(2′-methyl-biphenyl-3-sulfonyl)-5-methylsulfanyl-thiophene-2-carboxamidine]
7.64 to 8.22 | CSc1sc(C(=N)N)cc1S(=O)(=O)c1cccc(-c2cccc3ccccc23)c1 [Example 91, 5-methylsulfanyl-4-(3-naphthalen-1-yl-benzenesulfonyl)-thiophene-2-carboxamidine]
7.64 to 8.22 | CSc1sc(C(=N)N)cc1S(=O)(=O)c1cccc(-c2ccccc2C=O)c1 [Example 93, 4-(2′-formyl-biphenyl-3-sulfonyl)-5-methylsulfanyl-thiophene-2-carboxamidine]
7.64 to 8.22 | C=Cc1ccc(-c2cccc(S(=O)(=O)c3cc(C(=N)N)sc3SC)c2)cc1 [Example 94, 5-methylsulfanyl-4-(4′-vinyl-biphenyl-3-sulfonyl)-thiophene-2-carboxamidine]
7.64 to 8.22 | CCOc1cccc(-c2cccc(S(=O)(=O)c3cc(C(=N)N)sc3SC)c2)c1 [Example 95, 4-(3′-ethoxy-biphenyl-3-sulfonyl)-5-methylsulfanyl-thiophene-2-carboxamidine]
7.64 to 8.22 | CSc1sc(C(=N)N)cc1S(=O)(=O)c1cccc(-c2cccc(C(C)C)c2)c1 [Example 98, 4-(3′-isopropyl-biphenyl-3-sulfonyl)-5-methylsulfanyl-thiophene-2-carboxamidine]
7.64 to 8.22 | CSc1sc(C(=N)N)cc1S(=O)(=O)c1cccc(-c2cccc(C(C)=O)c2)c1 [Example 101, 4-(3′-acetyl-biphenyl-3-sulfonyl)-5-methylsulfanyl-thiophene-2-carboxamidine]
7.64 to 8.22 | CSc1sc(C(=N)N)cc1S(=O)(=O)c1cccc(-c2cccc(C(N)=O)c2)c1 [Example 104, 3′-(5-carbamimidoyl-2-methylsulfanyl-thiophene-3-sulfonyl)-biphenyl-3-carboxylic acid amide]
7.64 to 8.22 | CSc1sc(C(=N)N)cc1S(=O)(=O)c1cccc(-c2ccccc2N)c1 [Example 107, 4-(2′-amino-biphenyl-3-sulfonyl)-5-methylsulfanyl-thiophene-2-carboxamidine]
7.64 to 8.22 | CSc1sc(C(=N)N)cc1S(=O)(=O)c1ccc(C)c(-c2ccccc2)c1 [Example 115, 4-(6-Methyl-biphenyl-3-sulfonyl)-5-methylsulfanyl-thiophene-2-carboxamidine trifluoroacetate]
7.64 to 8.22 | CSc1sc(C(=N)N)cc1S(=O)(=O)c1cccc(-c2ccccc2)c1 [Example 117, 4-(Biphenyl-3-sulfonyl)-5-methylsulfanyl-thiophene-2-carboxamidine trifluoroacetate]
